Columns and labels:
[1] = system: T47D (PIK3CA mutant, ER/PR+) human breast cancer xenografts; experiment: Antitumor activity alone and in combination with fulvestrant in T47-D xenografts; format: in vivo, NOD-SCID mice; details: Compound A 70 mg/kg PO QD x 3/wk x 3, Fulvestrant 100 mg/kg SC QW x 3; for TGI (tumor growth inhibition): Day 21 post treatment initiation; for ΔAUC (change in area under the tumor volume-versus-time curves): versus vehicle, 21 day treatment
Text: The control used in this study was 100% PEG400+0.9% Saline. Fulvestrant was formulated in 0.9% saline.
Prior to injection, the cells were detached with Trypsin (Invitrogen), washed twice with phosphate buffered saline (PBS), and resuspended in RPMI (Roswell Park Memorial Institute) media (Invitrogen,) without supplements. Cells were resuspended to a final concentration of 10.0×10^7 cells/ml in DPBS and mixed with 50% Matrigel (BD Biosciences) at 1 to 1 volume. T47-D cells (10.0×10^6 cells/animal in 02-mL injection volume) were implanted S.C. into the right flank of NOD-SCID mice (Harlain Laboratories).
Four-six week old female NOD-SCID mice were inoculated SC in flank (cell suspension in DPBS and 50% Matrigel) with 10.0×10^6 T47-D cells. Tumor growth was monitored with vernier calipers. The mean TV (MTV) was calculated using the formula V=W2×L/2.
The percentage of tumor growth inhibition (TGI) and percent body weight (BW) change were determined on Day 21 and provided in Table 6. Statistical comparisons of tumor growth between the treatment and vehicle groups were conducted using a linear mixed effects regression analysis on the change in area under the tumor volume (TV)-versus—time curves (ΔAUC) values. All p values less than 0.05 were considered significant.
A combination score calculation was used to address the question of whether the effects of the combination treatments were synergistic, additive, subadditive, or antagonistic relative to the individual treatments. The effect was considered synergistic if the synergy score was less than 0, and additive if the synergy score wasn't statistically different from 0.

[2] = Phase 1 clinical study, safety and tolerability (MTD, AEs grade 3 or higher) in patients with advanced solid malignancies; format: in vivo
Text: A phase 1 clinical study was initiated to evaluate the safety, tolerability, PK, pharmacodynamics; to determine the maximum tolerated dose (MTD) in each of 3 schedules described below; and to evaluate antitumor activity in patients with advanced solid malignancies.
Inclusion Criteria • Subjects have had their PIK3CA gene mutation status assessed prior to enrolling into the study • Subjects must have documented disease progression prior to enrolling into the study • locally advanced or metastatic solid tumors with the exception of primary brain tumor, and have failed or are not eligible for standard of care therapy. • Age ≧18 years, including males and females; • ECOG performance status (PS) 0-1; • Adequate organ function; • Male subjects must be surgically sterile or must agree to use physician-approved contraception during the study and for 30 days following the last study drug administration; • Ability to swallow oral medications; • Ability to understand and willingness to sign informed consent prior to initiation of any study procedures; • For women of child-bearing potential, negative serum pregnancy test within 14 days prior to the first study drug administration and use of physician-approved method of birth control from 30 days prior to the first study drug administration to 30 days following the last study drug administration
35 patients were enrolled into the dose escalation phase of the study, which is designed to determine the MTD of compound A when given orally on continuous (daily) or intermittent schedules. The MTD for the QD dosing schedule was determined to be 100 mg.
Other than MTD, the other primary outcome measures is the tolerability profile of compound A or the number of adverse events (AE) from the first dose of study drug through 30 days after the last dose of study drug. Plasma levels of compound A is one of the secondary outcome measures.

[3] = system: MDA-MB-361 human breast cancer xenografts; experiment: Antitumor activity in MDA-MB-361 human breast cancer xenografts, various doses and schedules; format: in vivo, female athymic nude mice; details: PO
Method: Objectives of this study: to determine the in vivo antitumor activity of compound A at various doses and schedules in the MDA-MB-361 human breast cancer xenografts after oral (PO) administration in female nude mice.
Compound A was prepared according to methods disclosed in WO 2011/022439 and WO 2013/071272 and stored at approximately 25° C., shielded from light. The control used in this study was 100% PEG400.
Low passage MDA-MB-361 cells were grown in Dulbecco's Modified Eagle's Medium (DMEM) media supplemented with 20% fetal bovine serum (FBS) and 1× penicillin/streptomycin (Invitrogen [Carlsbad, Calif., USA]) until approximately 80% confluency was reached. […]
Four-five week old female athymic nude mice were inoculated SC in flank (cell suspension in serum free DMEM and 50% Matrigel) with 10.0×10^6 MDA-MB-361 cells. Tumor growth was monitored with vernier calipers. The mean TV (MTV) was calculated using the formula V=W^2×L/2.
When tumors reached a mean tumor volume (MTV) of approximately 280 mm^3, mice (n=5/group) were treated with vehicle (PEG400) or compound A (60, 70, 140, or 210 mg/kg) administered concurrently via oral gavage over a 28 day treatment period on the schedules indicated below in Table 2. The percentage of tumor growth inhibition (TGI) and percent body weight (BW) change were determined on Day 28. […]

Row | SMILES | TGI (tumor growth inhibition) [1] [%] | TGI (tumor growth inhibition) ([1]; listed as compound A) [%] | ΔAUC (change in area under the tumor volume-versus-time curves) [1] | maximum tolerated dose (MTD) ([2]; QD (continuous daily) oral dosing schedule) [mg] | Abdominal pain, AEs grade 3 or higher ([2]; both, human, in vivo) | Anaemia, AEs grade 3 or higher ([2]; both, human, in vivo) | Chills, AEs grade 3 or higher ([2]; both, human, in vivo) | Decreased appetite, AEs grade 3 or higher ([2]; both, human, in vivo) | Diarrhoea, AEs grade 3 or higher ([2]; both, human, in vivo) | Drug-induced liver injury, AEs grade 3 or higher ([2]; both, human, in vivo) | Hyperglycaemia, AEs grade 3 or higher ([2]; both, human, in vivo) | Nausea, AEs grade 3 or higher ([2]; both, human, in vivo) | Oxygen saturation, AEs grade 3 or higher ([2]; both, human, in vivo) | Transaminases incr'd, AEs grade 3 or higher ([2]; both, human, in vivo) | efficacy in reducing tumor size, intermittent regimen versus daily administration ([3]; 28 day treatment, total amount administered comparable in daily and intermittent schedules) | relationship between efficacy (tumor growth inhibition, TGI) and exposure (AUC) between dosing schedules ([3]; single agent, FIG. 3)
1 | Nc1nc2cc(-c3ccc4ncc(C(=O)N5CCOCC5)n4c3)ccc2o1 [Compound A, (6-(2-aminobenzo[d]oxazol-5-yl)imidazo[1,2-a]pyridin-3-yl)(morpholino)methanone] | 52.60 | 52.6 | 61.2 | 100 | 1 (4) n (%) | 1 (5) n (%) | 1 (6) n (%) | 1 (6) n (%) | 1 (6) n (%) | 1 (4) n (%) | 2 n (%) | 1 (6) n (%) | 1 (6) n (%) | 2 (8) n (%) | as efficacious in reducing tumor size as daily administration | AUC-driven
2 | C[C@]12CC[C@@H]3c4ccc(O)cc4C[C@@H](CCCCCCCCC[S+]([O-])CCCC(F)(F)C(F)(F)F)[C@H]3[C@@H]1CC[C@@H]2O (stereo partly drawn) [Fulvestrant, (7α,17β)-7-{9-[(4,4,5,5,5-pentafluoropentyl)sulfinyl]nonyl}estra-1,3,5(10)-triene-3,17-diol, reference compound] | 66.70 | – | 108.4 | – | – | – | – | – | – | – | – | – | – | – | – | –

From patent US20160287601A1, “ENHANCED TREATMENT REGIMENS USING PI3K INHIBITORS” (MILLENNIUM PHARMACEUTICALS, INC., priority 2013, published 2016)
